Data set [1] deals with Aspergillus flavus. As to the kind of experiment: Antifungal activity against Aspergillus flavus ATCC 204304 after 24 hrs by micro broth dilution assay. The data set is classed as functional. The conditions noted are these: ATCC 204304, 24 h.
The subject of another data set is Micrococcus luteus. As to the kind of experiment: Antibacterial activity against Micrococcus luteus ATCC 4698 after 24 hrs by micro broth dilution assay. The conditions noted are these: ATCC 4698, 24 h. Type of data set: functional.
The next data set relates to Bacillus sp. As to the kind of experiment: Antibacterial activity against Bacillus proteus ATCC 13315 after 24 hrs by micro broth dilution assay. Type of data set: functional. The conditions noted are these: Bacillus sp. (in: firmicutes), ATCC 13315, 24 h.
For data set [2], the system named is Bacillus spizizenii. The experiment in a line: Antibacterial activity against Bacillus subtilis ATCC 6633 after 24 hrs by micro broth dilution assay. Type of data set: functional. The conditions noted are these: ATCC 6633, 24 h.
In data set [3] the test system is Staphylococcus aureus. The experiment in a line: Antibacterial activity against Staphylococcus aureus ATCC 25923 after 24 hrs by micro broth dilution assay. Type of data set: functional. To be noted: ATCC 25923, 24 h.
The test system of another data set is Candida albicans. As to the kind of experiment: Antifungal activity against Candida albicans ATCC 10231 after 24 hrs by micro broth dilution assay. The conditions noted are these: ATCC 10231, 24 h. Type of data set: functional.
Data set [4] relates to Aspergillus flavus. As to the kind of experiment: Ratio of fluconazole MIC to compound MIC for Aspergillus flavus ATCC 204304. Type of data set: functional.
Another data set deals with Pseudomonas aeruginosa. As to the kind of experiment: Antibacterial activity against Pseudomonas aeruginosa ATCC 27853 a after 24 hrs by micro broth dilution assay. The data set is classed as functional. The conditions noted are these: ATCC 27853, 24 h.
A further data set has as its system Candida. The experiment in a line: Antifungal activity against Candida mycoderma ATCC 9888 after 24 hrs by micro broth dilution assay. The data set is classed as functional. To be noted: ATCC 9888, 24 h.
The nature of data set [5]: Antibacterial activity against Eberthella typhosa ATCC 14028 after 24 hrs by micro broth dilution assay. The data set is classed as functional. The conditions noted are these: ATCC 14028, 24 h.
Data set [6] relates to Staphylococcus aureus. The experiment in a line: Antibacterial activity against methicillin-resistant Staphylococcus aureus N315 after 24 hrs by micro broth dilution assay. Type of data set: functional. To be noted: N315, 24 h.
Another data set deals with Escherichia coli. As to the kind of experiment: Antibacterial activity against Escherichia coli DH52 after 24 hrs by micro broth dilution assay. The data set is classed as functional. To be noted: DH52, 24 h.
Another data set concerns Saccharomyces cerevisiae. As to the kind of experiment: Antifungal activity against Beer yeast ATCC 9763 after 24 hrs by micro broth dilution assay. Type of data set: functional. The conditions noted are these: ATCC 9763, 24 h.
The test system of the next data set is Cyberlindnera jadinii. The experiment in a line: Antifungal activity against Candida utilis ATCC 9950 after 24 hrs by micro broth dilution assay. The data set is classed as functional. To be noted: Williopsis jadinii, ATCC 9950, 24 h.
Another data set deals with Albumin (Homo sapiens, UniProt P02768). As to the kind of experiment: Binding affinity to human serum albumin assessed as fluorescence quenching at 10^-5 mol/L by fluorescence spectroscopy analysis. To be noted: isolated protein, 10 µM. Type of data set: ADME.
Data set [7] has as its system Calf thymus DNA. As to the kind of experiment: Binding affinity to calf thymus DNA by UV-visible absorption spectroscopy. The data set is classed as nucleic-acid assay. To be noted: Bos taurus.
The test system of data set [8] is Calf thymus DNA. As to the kind of experiment: Competitive binding affinity to calf thymus DNA using neutral red up to 2.0 x 10^-5 mol/L by UV-visible absorption spectroscopy. The conditions noted are these: Bos taurus. The data set is classed as nucleic-acid assay.
In data set [9] the test system is Bacillus spizizenii. As to the kind of experiment: Ratio of chloromycin MIC to compound MIC for Bacillus subtilis ATCC 6633. Type of data set: functional.

Converted amounts (≈) assume the structure as drawn. The source made the active and inactive calls. The rule behind the calls is not given here.

Chain of Albumin (P02768 whole entry): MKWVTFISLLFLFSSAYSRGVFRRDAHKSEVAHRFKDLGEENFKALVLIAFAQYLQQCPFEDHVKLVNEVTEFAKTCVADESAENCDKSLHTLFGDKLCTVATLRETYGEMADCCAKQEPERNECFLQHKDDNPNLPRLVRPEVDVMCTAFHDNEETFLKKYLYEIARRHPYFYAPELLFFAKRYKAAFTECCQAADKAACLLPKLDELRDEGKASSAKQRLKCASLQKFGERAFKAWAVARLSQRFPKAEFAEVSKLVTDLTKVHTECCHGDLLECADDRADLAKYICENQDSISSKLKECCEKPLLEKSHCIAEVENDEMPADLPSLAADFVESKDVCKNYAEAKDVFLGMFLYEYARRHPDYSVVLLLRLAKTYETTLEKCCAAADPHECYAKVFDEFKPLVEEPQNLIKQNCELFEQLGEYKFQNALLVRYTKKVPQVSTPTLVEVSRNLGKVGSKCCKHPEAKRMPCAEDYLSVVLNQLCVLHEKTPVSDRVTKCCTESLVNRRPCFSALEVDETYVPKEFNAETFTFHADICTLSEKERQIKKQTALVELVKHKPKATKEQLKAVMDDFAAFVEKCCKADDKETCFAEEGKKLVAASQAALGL

With `Cc1ncc([N+](=O)[O-])n1CCCCCCn1cnc2cc(F)ccc2c1=O`, the MIC was determined as 10 µM (≈ 3.73 µg/mL) in the data set on Aspergillus flavus [1]; 40 µM (≈ 14.9 µg/mL) in the data set on Micrococcus luteus; 40 µM (≈ 14.9 µg/mL) in the data set on Bacillus sp.; 20 µM (≈ 7.47 µg/mL) in the data set on Bacillus spizizenii [2]; 40 µM (≈ 14.9 µg/mL) in the data set with Staphylococcus aureus [3]; 20 µM (≈ 7.47 µg/mL) in the data set with Candida albicans. Also, the MIC is greater than 1370 µM with Pseudomonas aeruginosa; 20 µM (≈ 7.47 µg/mL) with Candida; 20 µM (≈ 7.47 µg/mL) in data set [5]; 40 µM (≈ 14.9 µg/mL) in the data set with Staphylococcus aureus [6]; 40 µM (≈ 14.9 µg/mL) against Escherichia coli; 40 µM (≈ 14.9 µg/mL) in the data set with Saccharomyces cerevisiae. Moreover, inhibition of growth with Cyberlindnera jadinii (MIC) required 20 µM (≈ 7.47 µg/mL). Moreover, the Ratio with Aspergillus flavus [4] turned out to be 84.
For the compound `Cc1ncc([N+](=O)[O-])n1CCn1cnc2cc(F)ccc2c1=O`, the MIC with Aspergillus flavus [1] came to 30 µM (≈ 9.52 µg/mL); with Micrococcus luteus, 50 µM (≈ 15.9 µg/mL); in the data set with Bacillus sp., 50 µM (≈ 15.9 µg/mL); against Bacillus spizizenii [2], 30 µM (≈ 9.52 µg/mL); against Staphylococcus aureus [3], 30 µM (≈ 9.52 µg/mL); with Candida albicans, 30 µM (≈ 9.52 µg/mL). The MIC in the data set with Pseudomonas aeruginosa is greater than 1610 µM; with Candida it was 30 µM (≈ 9.52 µg/mL); in [5], 30 µM (≈ 9.52 µg/mL); against Staphylococcus aureus [6], 30 µM (≈ 9.52 µg/mL); with Escherichia coli, 30 µM (≈ 9.52 µg/mL); against Saccharomyces cerevisiae, 30 µM (≈ 9.52 µg/mL). In the data set with Cyberlindnera jadinii, this compound displayed a minimal inhibitory concentration (MIC) of 30 µM (≈ 9.52 µg/mL). The Kq at Albumin is given as 0.1 ×10¹² L/mol/s. The compound also gave a K in the data set with Calf thymus DNA [7] of 1.41 ×10⁴ L/mol. Moreover, in the data set on Calf thymus DNA [8], the result was Active.
`O=c1c2ccc(F)cc2ncn1CCCCCCCCCCn1cnc([N+](=O)[O-])c1`: the MIC against Aspergillus flavus [1] turned out to be 150 µM (≈ 62.3 µg/mL); in the data set with Micrococcus luteus, 40 µM (≈ 16.6 µg/mL); against Bacillus sp., 80 µM (≈ 33.2 µg/mL); against Bacillus spizizenii [2], 20 µM (≈ 8.31 µg/mL); with Staphylococcus aureus [3], 310 µM (≈ 129 µg/mL); against Candida albicans, 40 µM (≈ 16.6 µg/mL). Further, the minimum inhibitory concentration (MIC) in the data set on Pseudomonas aeruginosa came to 80 µM (≈ 33.2 µg/mL); against Candida, 40 µM (≈ 16.6 µg/mL); in [5], 310 µM (≈ 129 µg/mL); in the data set with Staphylococcus aureus [6] it was 150 µM (≈ 62.3 µg/mL); in the data set with Escherichia coli, 150 µM (≈ 62.3 µg/mL); with Saccharomyces cerevisiae it was 80 µM (≈ 33.2 µg/mL). In addition, 150 µM (≈ 62.3 µg/mL) was the least that counted as inhibitory in the data set with Cyberlindnera jadinii (MIC). For the same compound, the Ratio with Bacillus spizizenii [9] is on record as 5.
Regarding `O=c1c2ccc(F)cc2ncn1CCCCCn1cnc([N+](=O)[O-])c1`, the MIC in the data set on Aspergillus flavus [1] stood at 740 µM (≈ 256 µg/mL); against Micrococcus luteus, 50 µM (≈ 17.3 µg/mL); with Bacillus sp., 370 µM (≈ 128 µg/mL); with Bacillus spizizenii [2], 20 µM (≈ 6.91 µg/mL); in the data set with Staphylococcus aureus [3], 190 µM (≈ 65.6 µg/mL); in the data set with Candida albicans, 90 µM (≈ 31.1 µg/mL). For the same compound, the MIC against Pseudomonas aeruginosa was determined as 370 µM (≈ 128 µg/mL); with Candida, 190 µM (≈ 65.6 µg/mL); in [5] it was 370 µM (≈ 128 µg/mL); in the data set with Staphylococcus aureus [6] it was 190 µM (≈ 65.6 µg/mL); against Escherichia coli it was 370 µM (≈ 128 µg/mL); against Saccharomyces cerevisiae, 90 µM (≈ 31.1 µg/mL). Besides, in the data set with Cyberlindnera jadinii, the minimal inhibitory concentration (MIC) was 370 µM (≈ 128 µg/mL). Also, the Ratio with Bacillus spizizenii [9] turned out to be 5.

The values above are taken from ChEMBL document CHEMBL3621068, “Synthesis and biological evaluation of a new class of quinazolinoneazoles as potential antimicrobial agents and their interactions with calf thymus DNA and human serum albumin” (Medchemcomm, 2015).
